Data reported in patent US20130210907A1, “METHOD FOR PREVENTING OR TREATING ENTEROCHROMAFFIN CELL HYPERPLASIA-RELATED DISEASES BY QUERCETIN ADMINISTRATION” (HONG KONG BAPTIST UNIVERSITY, priority 2012, published 2013).

Experiments:
Type in all cases: in vivo, rat
PI-IBS rats [1] = test: Abdominal withdrawal reflex (AWR) test: pain threshold pressure to colorectal distension
Method: Sprague-Dawley male rats (Laboratory Animal Services Centre, The Chinese University of Hong Kong) aged 6 weeks with body weight around 220 g are used to develop PI-IBS model. Briefly, rats are fasted for 24 h, and deeply anesthetized with chloral hydrate (350 mg.kg^−1, i.p.). After induction of colitis by 2,4,6-trinitrobenzenesulfonic acid solution (TNBS, 5 mg/0.8 ml/rat, in 50% ethanol, 8 cm from anus) administration, the rats are allowed to recover for at least 4 weeks before use. The control rats are similarly administered with 0.8 ml saline instead of TNBS. Only the rats that have completely recovered from the initial inflammation and acquired visceral hypersensitivity are used as the PI-IBS rats.
6 groups of 12 rats are tested. Normal rats (Group 1) are treated with water. PI-IBS rats are randomly divided into 5 groups and orally treated with water (Group 2), Doxantrazole (mast cell stabilizer, 30 mg/kg/d, Group 3), and Quercetin (Group 4-6) at the dose of 5, 10, and 20 mg/kg/d, respectively. After 2 weeks daily drug administration, 5 rats in each group are used to measure pain threshold pressure by abdominal withdrawal reflex (AWR) test, and the remaining […] is used for electromyography (EMG) recording.
AWR test is performed as previously described in Al-Chaer E D, Kawasaki M, Pasricha P J. A new model of chronic visceral hypersensitivity in adult rats induced by colon irritation during postnatal development. Gastroenterology. 2000 November; 119(5):1276-85. Briefly, rats are lightly anesthetized with ether; a latex balloon is inserted into the descending colon. Rats are then allowed to recover for about 1 h. The tube of the balloon is connected via a Y-connector to a sphygmomanometer and colorectal distension is applied in increments of 5 mmHg until a visible contraction of the abdominal wall is observed by an investigator blinded to the treatment. The pain threshold pressure is defined as the intensity of colorectal distension (CRD) that elicited an observable AWR, i.e. a sudden and persistent abdominal muscle contraction with abdomen lift off the platform. The pain threshold pressure of all groups is recorded and repeated five times with intervals of at least 5 minutes for recovery. EMG recording are conducted as previously described in Tammpere A, Brusberg M, Axenborg J, Hirsch I, Larsson H, Lindstrom E. Evaluation of pseudo-affective responses to noxious colorectal distension in rats by manometric recordings. Pain. 2005 August; 116(3):220-6 and Li Z, Zhang X J, Xu H X, Sung J J, Bian Z X. Intracolonical administration of protease-activated receptor-2 agonists produced visceral hyperalgesia by up-regulating serotonin in the colon of rats. Eur J. Pharmacol. 2009 Mar. 15; 606(1-3):199-204. Firstly, a surgical operation is made to implant the electrodes into the left external abdominal oblique muscles 7 days before EMG recording. After the last drug administration, a flexible latex balloon is inserted into the rat descending colon, and the rats are allowed to accommodate for 1 h. CRD is initiated, and the EMG signal is amplified and filtered by Power Lab System. Graded colorectal distension (20, 40, 60, and 80 mmHg; 20 s duration; 2 min inter-stimulus interval) is carried out for total three cycles to each rat. The changes of area under the curve (AUC) are calculated using that during 20 s distension period over the 20 s baseline.

PI-IBS rats [2] = test: Colonic EC cell counting (silver staining); conditions: 30 mg/kg i.g.
Method: (§1) Six groups of 5 rats are tested. The groups setting and treatments are as described in Example 1. Different from Example 1, AWR test are not applied to the rats in this experiment in order to obtain the basal data without CRD stimulus. After the last drug administration, a 6 cm proximal colon (1-2 cm from caecum) is collected and divided into 3 parts, the proximal is fixed in 4% paraformaldehyde and embedded in paraffin for EC cell staining; the middle part is collected for 5-HT content measurement and electron microscopic evaluation, and the distal part is for western blotting analysis.
Tissue sections (5-μm thick) are deparaffinized and rehydrated for silver staining. Briefly, sections are incubated with 5% ammoniacal silver solution for 4 h at room temperature, then 2 h in 56° C. and subsequently 12 h at room temperature in a dark humidified chamber. After rinsing with water, 5% sodium hyposulfite is added and the tissue sections are incubated for 5 min at room temperature. The brown to black silver precipitate in the cytoplasm of EC cells represents as a positive reaction. A researcher blinded to treatment counted 5 random fields at 200× magnifications for each section, and the number of EC cells per mm^2 of mucosa is quantified using Image J NIH software.

PI-IBS rats [3] = test: Colonic tissue 5-HT content (capillary electrophoresis, laser-induced fluorescence); conditions: 30 mg/kg i.g.
Method: as §1
(§2) 5-HT content in the colon tissue is assayed based on our previously reported procedure in Qi S D, Tian S L, Xu H X, Sung J J, Bian Z X. Quantification of luminally released serotonin in rat proximal colon by capillary electrophoresis with laser-induced fluorescence detection. Anal Bioanal Chem. 2009 April; 393(8):2059-66. Briefly, the colon segment is homogenized in 15% iced trichloroacetic acid; for 2 min and stored at 4° C. for 2 h. After centrifuge at 10,000 G for 15 min, the supernatant of each sample is filtered using 0.22 μm filters and extracted with diethyl ether for five times to remove the trichloroacetic acid. The prepared samples are added to derivatization solution (150 mM sodium tetraborate, 25% acetonitrile, 2 mM CFSE) and incubated for […] in dark at room temperature. The 5-HT content is analyzed by capillary electrophoresis with laser-induced fluorescence detection and expressed as nanogram per milligram (wet weight of tissue).

PI-IBS rats [4] = test: Mechanical stimuli (CRD)-induced 5-HT release: colonic 5-HT content with or without CRD
Method: as §2
To determine whether mechanical stimuli (CRD) can induce colonic 5-HT release in PI-IBS rats, and whether Quercetin has effect on it, 5-HT content in colonic tissue is evaluated in rats with or without AWR test. The colon tissues for 5-HT content determination are collected from the rats from Example 1 and Example 2, and the methods for 5-HT content determination are followed as described in Example 2.

## O=C1c2ccccc2S(=O)(=O)c2cc(-c3nnn[nH]3)ccc21 [Doxantrazole, reference compound]
PI-IBS rats [1]; 30 mg/kg i.g. daily, 2 weeks
  Pain threshold pressure, after treatment: 29 ± 1.2 mmHg
PI-IBS rats [1]; 30 mg/kg i.g. group, before treatment
  Pain threshold pressure, before treatment: 25 ± 1.3 mmHg
PI-IBS rats [2]
  Effect on colonic EC cells number in PI-IBS rats: no marked effects
PI-IBS rats [2]; PI-IBS rats, colon
  EC cell density: 95 ± 10 Number/mm^2
PI-IBS rats [3]
  Effect on colonic 5-HT content in PI-IBS rats: no marked effects
PI-IBS rats [3]; PI-IBS rats, colon
  5-HT content: 5.75 ± 0.44^ ng/mg
PI-IBS rats [4]; 30 mg/kg i.g., after CRD
  5-HT content of tissue, +CRD: 2.62 ± 0.30 ng/mg
PI-IBS rats [4]; 30 mg/kg i.g., without CRD
  5-HT content of tissue, -CRD: 5.75 ± 0.44^ ng/mg
PI-IBS rats [4]; 30 mg/kg, p<0.05
  Decrease of colon tissue 5-HT content after CRD application: ~54.4%
